Tests used:
[1] = test system: Streptococcus pyrogenes (ATCC8668); experiment: MIC testing, additional organisms: Streptococcus pyrogenes; assay type: cell-based; settings: broth supplemented with 2% laked horse blood
From the text: (§1) The broth microdilution format of the National Committee for Clinical Laboratory Standards (NCCLS) approved standard for susceptibility tests as outlined in M7-A4 “methods for dillution Antimicrobial susceptibility tests for bacteria that grow aerobically; approved standard—fifth edition”, January 2000 was utilized for minimum inhibitory concentration testing in Mueller-Hinton broth. The broth for Streptococcus pyogenes testing was supplemented with 2% laked horse blood. A positive result in initial testing was determined by complete inhibition of macroscopic bacterial growth at a concentration of 128 micrograms per mL after incubation for 16 to 24 hours at 37 degrees C. In the case of Micrococcus luteus, incubation was at 30 degrees C.
(§2) Bacterial Types Are: • SA24 S. aureus after 24 hours exposure • SA48 S. aureus after 48 hours exposure • EC24 E. coli after 24 hours exposure
(§3) The following compounds were tested against additional organisims with the following results. • 1. Micrococcus luteus (ATCC272) • 2. Staphylococcus aureus (ATCC29213) • 3. Staphylococcus aureus (ATCC43300) MRSA • 4. Enterococcus faecalis (ATCC29212) • 5. Enterococcus faecalis (ATCCS 1299) Vancomycin resistant • 6. Streptococcus pyrogenes (ATCC8668)

E. coli = experiment: MIC testing, broth microdilution (NCCLS), E. coli; assay type: cell-based; settings: E. coli after 24 hours exposure
From the text: (§4) The broth microdilution format of the National Committee for Clinical Laboratory Standards (NCCLS) approved standard for susceptibility tests as outlined in M7-A4 “methods for dillution Antimicrobial susceptibility tests for bacteria that grow aerobically; approved standard—fifth edition”, January 2000 was utilized for minimum inhibitory concentration testing in Mueller-Hinton broth. The broth for Streptococcus pyogenes testing was supplemented with 2% laked horse blood. A positive result in initial testing was determined by complete inhibition of macroscopic bacterial growth at a concentration of 128 micrograms per mL after incubation for 16 to 24 hours at 37 degrees C. In the case of Micrococcus luteus, incubation was at 30 degrees C. […] Bacterial Types Are: • SA24 S. aureus after 24 hours exposure • SA48 S. aureus after 48 hours exposure • EC24 E. coli after 24 hours exposure

S. aureus = experiment: MIC testing, broth microdilution (NCCLS), S. aureus; assay type: cell-based, Staphylococcus aureus; settings: for SA24 (MIC): S. aureus after 24 hours exposure; for SA48 (MIC): S. aureus after 48 hours exposure
From the text: as §4

[2] = test system: Staphylococcus aureus (ATCC43300) MRSA; experiment: MIC testing, additional organisms: Staphylococcus aureus MRSA; assay type: cell-based
From the text: as §1, §2, §3

[3] = test system: Enterococcus faecalis (ATCCS 1299) Vancomycin resistant; experiment: MIC testing, additional organisms: Enterococcus faecalis vancomycin resistant; assay type: cell-based
From the text: as §1, §2, §3

[4] = test system: Staphylococcus aureus (ATCC29213); experiment: MIC testing, additional organisms: Staphylococcus aureus ATCC29213; assay type: cell-based
From the text: as §1, §2, §3

[5] = test system: Micrococcus luteus (ATCC272); experiment: MIC testing, additional organisms: Micrococcus luteus; assay type: cell-based; settings: incubation at 30 degrees C
From the text: as §1, §2, §3

[6] = test system: Enterococcus faecalis (ATCC29212); experiment: MIC testing, additional organisms: Enterococcus faecalis ATCC29212; assay type: cell-based
From the text: as §1, §2, §3

SMILES | MIC, organism 6 [1] | EC24 (MIC) (E. coli) | SA24 (MIC) (S. aureus) | SA48 (MIC) (S. aureus) | MIC, organism 3 [2] | MIC, organism 5 [3] | MIC, organism 2 [4] | MIC, organism 1 [5] | MIC, organism 4 [6]
CCCCCCCCCCC(=O)NC1C(CO)OCC(NC(=O)Nc2cccc(C(F)(F)F)c2)C1OC1OC(CO)C(O)C(O)C1NC(=O)Nc1cccc(C(F)(F)F)c1 (centres unmarked) [compound 77] | + (+ indicates an MIC value of less than 128 micrograms per mL) | − (− indicates an MIC of greater then 128 micrograms per mL) | + (+ indicates an MIC value of less than 128 micrograms per mL) | + (+ indicates an MIC value of less than 128 micrograms per mL) | + (+ indicates an MIC value of less than 128 micrograms per mL) | + (+ indicates an MIC value of less than 128 micrograms per mL) | + (+ indicates an MIC value of less than 128 micrograms per mL) | + (+ indicates an MIC value of less than 128 micrograms per mL) | + (+ indicates an MIC value of less than 128 micrograms per mL)
CCCCCCCCCCN[C@H]1C(CO)OCC(NC(=O)Nc2cccc(C(F)(F)F)c2)[C@H]1O[C@@H]1OC(CO)[C@@H](O)[C@H](O)C1NC(=O)Nc1cccc(C(F)(F)F)c1 (some centres unmarked) [compound 56] | + (+ indicates an MIC value of less than 128 micrograms per mL) | – | + (+ indicates an MIC value of less than 128 micrograms per mL) | + (+ indicates an MIC value of less than 128 micrograms per mL) | + (+ indicates an MIC value of less than 128 micrograms per mL) | + (+ indicates an MIC value of less than 128 micrograms per mL) | + (+ indicates an MIC value of less than 128 micrograms per mL) | + (+ indicates an MIC value of less than 128 micrograms per mL) | + (+ indicates an MIC value of less than 128 micrograms per mL)
O=C(Nc1cccc(C(F)(F)F)c1)NC1COC(CO)C(NC(=O)c2ccc(Oc3ccccc3)cc2)C1OC1OC(CO)C(O)C(O)C1NC(=O)Nc1cccc(C(F)(F)F)c1 (centres unmarked) [compound 73] | + (+ indicates an MIC value of less than 128 micrograms per mL) | – | + (+ indicates an MIC value of less than 128 micrograms per mL) | – | + (+ indicates an MIC value of less than 128 micrograms per mL) | + (+ indicates an MIC value of less than 128 micrograms per mL) | + (+ indicates an MIC value of less than 128 micrograms per mL) | + (+ indicates an MIC value of less than 128 micrograms per mL) | + (+ indicates an MIC value of less than 128 micrograms per mL)
CCCCCCCC(=O)Nc1ccc(C(=O)NC2C(CO)OCC(NC(=O)Nc3cccc(C(F)(F)F)c3)C2OC2OC(CO)C(O)C(O)C2NC(=O)Nc2cccc(C(F)(F)F)c2)cc1 (centres unmarked) [compound 65] | + (+ indicates an MIC value of less than 128 micrograms per mL) | – | + (+ indicates an MIC value of less than 128 micrograms per mL) | + (+ indicates an MIC value of less than 128 micrograms per mL) | − (− indicates an MIC of greater then 128 micrograms per mL) | − (− indicates an MIC of greater then 128 micrograms per mL) | − (− indicates an MIC of greater then 128 micrograms per mL) | + (+ indicates an MIC value of less than 128 micrograms per mL) | + (+ indicates an MIC value of less than 128 micrograms per mL)

From patent publication US7700577B2, “Carbohydrate based anti-bacterials” (Alchemia Limited, priority 2002, dated 2010)
